The test system of the assay is Staphylococcus aureus. As to the kind of experiment: Antibacterial activity against Staphylococcus aureus subsp. aureus ATCC 29213 assessed as bacterial growth inhibition incubated for 24 hrs by Reed-Muench method. The class given is functional.

Structures are written as SMILES. ≈ marks a conversion by molar mass, not a printed value.

Turning to `CC(C)=CCc1cc(C(=O)O)cc2c1OC(C)(C)C=C2`, the MIC50 (in general, the lowest concentration that inhibits either 50% of growth or 50% of the strains tested, depending on the study) worked out at 15 µg/mL (≈ 55.1 µM).

For the compound `CC(C)=CCc1cc(C(=O)O[C@@H]2CC(C(=O)O)=C[C@@H](O)[C@H]2O)cc2c1OC(C)(C)C=C2`, the MIC50 amounted to 56 µg/mL (≈ 131 µM).

Turning to `CC(C)=CCc1cc(C(=O)O[C@H](C)[C@@](C)(O)C(=O)O)cc(CC=C(C)C)c1O`, the MIC50 was 23 µg/mL (≈ 58.9 µM).

For the compound `C=C(C)C(O)Cc1cc(C(=O)O)cc2c1OC(C)(C)C=C2` (stereo not drawn), the MIC50 is 81 µg/mL (≈ 281 µM).

Regarding `CC(C)=CCc1cc(C(=O)O)cc2c1OC(C)(C)CC2=O`, the MIC50 worked out at 93 µg/mL (≈ 323 µM).

For the compound `C=C(C)C(O)Cc1cc(C(=O)O)cc(CC=C(C)C)c1O` (stereo not drawn), the MIC50 worked out at 89 µg/mL (≈ 307 µM).

In the case of `CC(C)=CCc1cc(C(=O)O)cc(CC=C(C)C)c1O`, the MIC50 worked out at 7.6 µg/mL (≈ 27.7 µM).

Consider `CC1(C)S[C@@H]2[C@H](NC(=O)Cc3ccccc3)C(=O)N2[C@H]1C(=O)[O-].[Na+]` [PENICILLIN G SODIUM], for which the MIC50 came out at 0.53 µg/mL.
